Converted amounts (≈) assume the structure as drawn. “And” between values parts separate entries of the source, which are not always exact repeats. Equal entries are not always repeated. Where two headings read alike, the source gives them in different places.
Experiments:
[1] = test system: M. tuberculosis H37Rv; assay: microbe, parasite or virus in culture; type: cell-based, Mycobacterium tuberculosis; conditions: Mycobacterium tuberculosis, H37RV; read-out: MIC
[2] = test system: XDR M. tuberculosis (KMRC 00203–00197); type: cell-based, Mycobacterium tuberculosis
[3] = test system: XDR M. tuberculosis; type: cell-based, Mycobacterium tuberculosis
[4] = test system: M. tuberculosis H37Rv; assay: Luminescence-based microbial cell viability assay; set-up: species or system Mycobacterium tuberculosis; conditions: for RLU/50ul (replicates1-3), single values / RLU/ml (×100) / RLU/50ul (average): Fig 2C
[5] = test system: XDR M. tuberculosis; assay: Luminescence-based microbial cell viability assay; set-up: species or system Mycobacterium tuberculosis
[6] = test system: M. tuberculosis H37Rv; type: cell-based, Mycobacterium tuberculosis; conditions: H37Rv
[7] = test system: M. tuberculosis H37Rv; type: in vivo, BALB/c mice; set-up: Efficacy in BALB/C mouse model of pulmonary tuberculosis, Average / Efficacy in BALB/C mouse model of pulmonary tuberculosis, values of mice 1-6: unit not given here; conditions: Fig 4C, group dose 30, 6 mice
[8] = in vitro; type: cell-based; conditions: human
Procedure: A549 human pulmonary epithelial cells (KCLB 10185), human embryonic kidney (HEK) 293 cells (KCLB 21573), human THP-1 leukemia cells (KCLB 40202), human neuroblastoma SH-SY5Y cells (KCLB 22266), Murine Raw 264.7 macrophages (KCLB 40071), and L929 murine fibroblasts (KCLB 10001) were purchased from the KCLB (Seoul, Korea). Cytotoxicity testing was performed using the MTT assay and the WST-1 cell viability assay as previously described.

[9] = in vitro; type: cell-based, murine; conditions: mouse
How it was run: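 MTT and WST-1 viability read-outs; cytotoxicity testing per earlier published protocols.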

[10] = test system: intestinal microbiome; assay: Gut microbiome, 16s rRNA gene-based metagenomics analysis of feces; type: in vivo, BALB/c mice; conditions: 30 mg/kg oral once a day for 7 days, BALB/c mice, feces
Procedure: Six-week-old BALB/c female mice were used for this study (6 mice for each group). Each drug was administered orally at 30 mg/kg once daily for 7 days. Stool was collected, and 16 rRNA gene-based metagenomics analysis was performed. Corn oil was used as the vehicle. The drug-free group received corn oil only. This animal experiment was conducted with the approval of the IACUC of the Soonchunhyang University (approval number: SCH21-0011). Microbiome analysis of collected feces was carried out as previously described with some modifications. Total DNA was extracted from the stool using the QIAamp DNA stool mini kit (Qiagen, Germany) after mechanical disruption using lysing matrix B tubes (MP Biomedicals, USA). V4 region of 16S RNA gene was amplified from extracted DNA with the following primers: forward primer ([…]) and reverse primer ([…]). PCR was performed using the Kappa HiFi hot start kit (KAPA Biosystems, USA) for 16s gene amplification and library preparation. A dsDNA HS assay kit and Qubit 4 fluorimeter (Invitrogen, USA) were used for DNA quantification. After each step, quality was checked using Agilent High Sensitivity DNA Kit and Agilent Bioanalyzer 2100 (Agilent Technologies, USA). Clean-up was performed using AMPure XP beads (Beckman Coulter, UK). The metagenomic library was prepared using a Nextera XT DNA Library Prep Kit (Illumina, USA) and loaded into an iSeq-100 reagent cartridge (Illumina, USA) together with a PhiX Control library (Illumina, USA). A 300-bp paired-end sequencing was performed on an iSeq-100 platform (Illumina, USA). Sequencing data were analyzed using the EzBioCloud server (Chunlab, Korea).

[11] = test system: M. arupense; assay: microbe, parasite or virus in culture; type: cell-based, Mycobacterium arupense; conditions: Mycolicibacter arupensis
[12] = test system: M. aubagnense; assay: microbe, parasite or virus in culture; type: cell-based, Mycobacterium aubagnense; conditions: Mycolicibacterium aubagnense
[13] = test system: M. bovis; assay: microbe, parasite or virus in culture; type: cell-based; conditions: Mycobacterium tuberculosis variant bovis
[14] = test system: M. chitae; assay: microbe, parasite or virus in culture; type: cell-based, Mycobacterium chitae; conditions: Mycolicibacterium chitae
[15] = test system: M. colombiense; assay: microbe, parasite or virus in culture; type: cell-based; conditions: Mycobacterium colombiense
[16] = test system: M. goodie; assay: microbe, parasite or virus in culture; type: cell-based; conditions: Mycobacterium
[17] = test system: M. gordonae; assay: microbe, parasite or virus in culture; type: cell-based; conditions: Mycobacterium gordonae
[18] = test system: M. heraklionease; assay: microbe, parasite or virus in culture; type: cell-based; conditions: Mycobacterium
[19] = test system: M. intracellulare; assay: microbe, parasite or virus in culture; type: cell-based; conditions: Mycobacterium intracellulare
[20] = test system: M. kansasii; assay: microbe, parasite or virus in culture; type: cell-based; conditions: Mycobacterium kansasii
[21] = test system: M. kyorinense; assay: microbe, parasite or virus in culture; type: cell-based; conditions: Mycobacterium kyorinense
[22] = test system: M. marseiliense; assay: microbe, parasite or virus in culture; type: cell-based; conditions: Mycobacterium
[23] = test system: M. massiliense; assay: microbe, parasite or virus in culture; type: cell-based, Mycobacterium massiliense; conditions: Mycobacteroides abscessus
[24] = test system: M. neoaurum; assay: microbe, parasite or virus in culture; type: cell-based, Mycobacterium neoaurum; conditions: Mycolicibacterium neoaurum
[25] = test system: M. xenopi; assay: microbe, parasite or virus in culture; type: cell-based; conditions: Mycobacterium xenopi

NNC(=O)c1ccncc1 [INH, isoniazid, reference compound]
MIC [1]: 0.4 µg/mL (≈ 2.92 µM)
CFU (replicates1-3), single values [2]: 6900 CFU and 40600 CFU and 43800 CFU and 52100 CFU and 37500 CFU and 35600 CFU and 31700 CFU and 15100 CFU and 27000 CFU and 106000 CFU and 157000 CFU and 148000 CFU and 98000 CFU and 61800 CFU and 75500 CFU and 71000 CFU and 87000 CFU and 97000 CFU
log reduction (CFU) ([2]; at 12.5 μg/ml, 7 days): 1.0
RFU/200 μl (replicates1-3), single values [3]: 29490 RFU/200 μl and 29760 RFU/200 μl and 24060 RFU/200 μl and 22090 RFU/200 μl and 22930 RFU/200 μl and 29240 RFU/200 μl and 29310 RFU/200 μl and 29280 RFU/200 μl and 29510 RFU/200 μl and 51780 RFU/200 μl and 52060 RFU/200 μl and 51260 RFU/200 μl and 49980 RFU/200 μl and 50610 RFU/200 μl and 51510 RFU/200 μl and 51660 RFU/200 μl and 51460 RFU/200 μl and 51820 RFU/200 μl and 56880 RFU/200 μl and 57100 RFU/200 μl and 53750 RFU/200 μl and 53730 RFU/200 μl and 46980 RFU/200 μl and 53520 RFU/200 μl and 53690 RFU/200 μl and 53460 RFU/200 μl and 56940 RFU/200 μl
RFU/ml (×104) [3]: 13.6 RFU/ml (×104) and 25.7 RFU/ml (×104) and 27.0 RFU/ml (×104)
antitubercular effect [3]: did not show a significant antitubercular effect
RLU/50ul (replicates1-3), single values ([4]; drug conc. 0.19): 1310 RLU/50ul and 1170 RLU/50ul and 1890 RLU/50ul and 1990 RLU/50ul and 2130 RLU/50ul and 1740 RLU/50ul and 1790 RLU/50ul and 1620 RLU/50ul and 1290 RLU/50ul
RLU/ml (×100) ([4]; drug conc. 0.19): 331.8 RLU/ml (×100)
RLU/50ul (average) ([4]; drug conc. 0.19, average of each replicate set): 2003 RLU/50ul and 1717 RLU/50ul and 1257 RLU/50ul
RLU/50ul (replicates1-3), single values ([4]; drug conc. 0.39): 340 RLU/50ul and 310 RLU/50ul (2×) and 220 RLU/50ul and 250 RLU/50ul and 320 RLU/50ul (3×) and 360 RLU/50ul
RLU/ml (×100) ([4]; drug conc. 0.39): 61.1 RLU/ml (×100)
RLU/50ul (average) ([4]; drug conc. 0.39, average of each replicate set): 263 RLU/50ul and 317 RLU/50ul and 337 RLU/50ul
RLU/50ul (replicates1-3), single values ([4]; drug conc. 0.78): 120 RLU/50ul (3×) and 100 RLU/50ul and 130 RLU/50ul (2×) and 180 RLU/50ul and 150 RLU/50ul and 140 RLU/50ul
RLU/ml (×100) ([4]; drug conc. 0.78): 26.4 RLU/ml (×100)
RLU/50ul (average) ([4]; drug conc. 0.78, average of each replicate set): 143 RLU/50ul and 137 RLU/50ul and 117 RLU/50ul
concentration with significant antitubercular effect ([4]; luminescence-based assay): 0.78 µg/mL and 0.39 µg/mL
RLU/50ul (replicates1-3), single values [5]: 190 RLU/50ul and 260 RLU/50ul (2×) and 250 RLU/50ul and 280 RLU/50ul and 160 RLU/50ul (2×) and 150 RLU/50ul and 170 RLU/50ul and 540 RLU/50ul (2×) and 630 RLU/50ul (2×) and 530 RLU/50ul and 620 RLU/50ul and 670 RLU/50ul (2×) and 580 RLU/50ul and 690 RLU/50ul and 830 RLU/50ul (2×) and 790 RLU/50ul and 800 RLU/50ul and 880 RLU/50ul and 870 RLU/50ul and 750 RLU/50ul (2×)
antitubercular effect [5]: did not show a significant antitubercular effect
CFU/ml (average) ([6]; Fig 3A, drug conc. 12.5): 2420 CFU/ml
Intracellular M. tuberculosis, % (Drug Free = 100.0) ([6]; Fig 3A, drug conc. 12.5): 7.2%
CFU/ml (average) ([6]; Fig 3A, drug conc. 25): 203 CFU/ml
Intracellular M. tuberculosis, % (Drug Free = 100.0) ([6]; Fig 3A, drug conc. 25): 0.6%
CFU/ml (average) ([6]; Fig 3B, drug conc. 12.5): 2120 CFU/ml
Intracellular M. tuberculosis, % (Drug Free = 100.0) ([6]; Fig 3B, drug conc. 12.5): 6.3%
CFU/ml (average) ([6]; Fig 3B, drug conc. 25): 133 CFU/ml
Intracellular M. tuberculosis, % (Drug Free = 100.0) ([6]; Fig 3B, drug conc. 25): 0.4%
Efficacy in BALB/C mouse model of pulmonary tuberculosis, Average [7]: 226667
CC50 ([8]; A549): > 500 µg/mL
CC50 ([8]; HEK-293): > 500 µg/mL
CC50 ([8]; SH-SY5Y): > 500 µg/mL
CC50 ([8]; THP-1): > 500 µg/mL
CC50 ([9]; L929): > 500 µg/mL
CC50 ([9]; Raw264.7): > 500 µg/mL
beta set-significance analysis, pair-wise comparison of gut microbiome [10]: not significant
difference in phylum or class level taxa compared to drug-free group [10]: did not significantly differ
phylogenetic diversity compared to drug-free control group [10]: no significant change
MIC [11]: 50 µg/mL (≈ 365 µM)
MIC [12]: > 100 µg/mL
MIC [13]: 0.2 µg/mL (≈ 1.46 µM)
MIC [14]: 12.5 µg/mL (≈ 91.1 µM)
MIC [15]: 12.5 µg/mL (≈ 91.1 µM)
MIC [16]: 25 µg/mL (≈ 182 µM)
MIC [17]: > 100 µg/mL
MIC [18]: > 100 µg/mL
MIC [19]: 25 µg/mL (≈ 182 µM)
MIC [20]: 0.2 µg/mL (≈ 1.46 µM)
MIC [21]: 3.1 µg/mL (≈ 22.6 µM)
MIC [22]: > 100 µg/mL
MIC [23]: 12.5 µg/mL (≈ 91.1 µM)
MIC [24]: 3.1 µg/mL (≈ 22.6 µM)
MIC [25]: 1.6 µg/mL (≈ 11.7 µM)
